Laboratory results as given in patent US9540392B2, “Thienopyrimidines” (BAYER PHARMA AKTIENGESELLSCHAFT, priority 2012, dated 2017).

Molecular target: T1, human full-length MKNK1 (Homo sapiens, UniProt Q9BUB5, T385D)
T1 construct: GST (N); purchased Carna Biosciences 02-145; host or cells: insect cells (baculovirus expression system)
Assay: MKNK1 kinase high ATP assay (TR-FRET)
Assay type: biochemical
Conditions: 2 mM ATP, after preincubation with MKNK1; read-out: MKNK1 IC50 (MKNK1 high ATP)
Summary of the method: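 Compound was preincubated 15 min at 22° C. with MKNK1 in 50 mM HEPES pH 7.5, 5 mM MgCl2, 1.0 mM DTT, then the reaction ran 30 min at 22° C. with 2 mM ATP and 0.06 μM biotinylated peptide (final).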

T1 sequence (Q9BUB5 1-424 isoform Q9BUB5-2 T344D): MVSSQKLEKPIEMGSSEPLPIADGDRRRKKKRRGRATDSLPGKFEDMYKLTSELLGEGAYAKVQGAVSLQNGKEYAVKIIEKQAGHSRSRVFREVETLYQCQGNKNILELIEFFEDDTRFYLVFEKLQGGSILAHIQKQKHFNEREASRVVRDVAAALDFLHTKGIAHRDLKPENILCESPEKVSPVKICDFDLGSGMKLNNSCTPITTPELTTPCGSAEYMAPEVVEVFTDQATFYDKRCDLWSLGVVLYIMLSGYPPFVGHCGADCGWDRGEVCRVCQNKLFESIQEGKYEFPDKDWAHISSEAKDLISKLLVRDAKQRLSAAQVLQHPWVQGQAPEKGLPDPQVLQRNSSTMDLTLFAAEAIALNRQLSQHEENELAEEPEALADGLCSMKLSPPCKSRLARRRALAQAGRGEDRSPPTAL

IC50 [nM] | SMILES
0.4 | CCOc1cc2[nH]ncc2cc1Nc1ncnc2sc3c(c12)CCC(C(=O)N1CCCC(C#N)C1)C3 (racemic) [Example 241, (RS)-1-({4-[(6-Ethoxy-1H-indazol-5-yl)amino]-5,6,7,8-tetrahydro[1]benzothieno[2,3-d]pyrimidin-7-yl}carbonyl)piperidine-3-carbonitrile]
0.5 | COc1cc2[nH]ncc2cc1Nc1ncnc2sc3c(c12)CCC(C(=O)N1CC2(COC2)C1)C3 (racemic) [Example 250, (RS)-{4-[(6-Methoxy-1H-indazol-5-yl)amino]-5,6,7,8-tetrahydro[1]benzothieno[2,3-d]pyrimidin-7-yl}(2-oxa-6-azaspiro[3.3]hept-6-yl)methanone]
0.3 | CCOc1cc2[nH]ncc2cc1Nc1ncnc2sc3c(c12)CCC(C(=O)N1CC=CC1)C3 (racemic) [Example 255, (RS)-2,5-Dihydro-1H-pyrrol-1-yl{4-[(6-ethoxy-1H-indazol-5-yl)amino]-5,6,7,8-tetrahydro[1]benzothieno[2,3-d]pyrimidin-7-yl}methanone]
1.9 | CC(C)Oc1cc2[nH]ncc2cc1Nc1ncnc2sc3c(c12)CCC(C(=O)N1CC2(CCO2)C1)C3 (racemic) [Example 259, (RS)-{4-[(6-Isopropoxy-1H-indazol-5-yl)amino]-5,6,7,8-tetrahydro[1]benzothieno[2,3-d]pyrimidin-7-yl}(1-oxa-6-azaspiro[3.3]hept-6-yl)methanone]
0.7 | COc1cc2[nH]ncc2cc1Nc1ncnc2sc3c(c12)CCC(C(=O)N1CC2(CCO2)C1)C3 (racemic) [Example 260, (RS)-{4-[(6-Methoxy-1H-indazol-5-yl)amino]-5,6,7,8-tetrahydro[1]benzothieno[2,3-d]pyrimidin-7-yl}(1-oxa-6-azaspiro[3.3]hept-6-yl)methanone]
2.3 | CC(C)Oc1cc2[nH]ncc2cc1Nc1ncnc2sc3c(c12)CCC(C(=O)N1CCC2(CC2)C1)C3 (racemic) [Example 261, (RS)-5-Azaspiro[2.4]hept-5-yl{4-[(6-isopropoxy-1H-indazol-5-yl)amino]-5,6,7,8-tetrahydro[1]benzothieno[2,3-d]pyrimidin-7-yl}methanone]
3.3 | CCOc1cc2[nH]ncc2cc1Nc1ncnc2sc3c(c12)CCC(C(=O)N1CC2(CCS2(=O)=O)C1)C3 (racemic) [Example 263, (RS)-(1,1-Dioxido-1-thia-6-azaspiro[3.3]hept-6-yl){4-[(6-ethoxy-1H-indazol-5-yl)amino]-5,6,7,8-tetrahydro[1]benzothieno[2,3-d]pyrimidin-7-yl}methanone]
2.2 | COc1cc2[nH]ncc2cc1Nc1ncnc2sc3c(c12)CCC(C(=O)N1CC2(CCS2(=O)=O)C1)C3 (racemic) [Example 264, (RS)-(1,1-Dioxido-1-thia-6-azaspiro[3.3]hept-6-yl){4-[(6-methoxy-1H-indazol-5-yl)amino]-5,6,7,8-tetrahydro[1]benzothieno[2,3-d]pyrimidin-7-yl}methanone]
1.2 | CCOc1cc2[nH]ncc2cc1Nc1ncnc2sc3c(c12)CCC(C(=O)N1CCC(C#N)C1)C3 (racemic) [Example 265, (3RS)-1-({(7RS)-4-[(6-Ethoxy-1H-indazol-5-yl)amino]-5,6,7,8-tetrahydro[1]benzothieno[2,3-d]pyrimidin-7-yl}carbonyl)pyrrolidine-3-carbonitrile]

The remaining lines, values behind:

SMILES | IC50 [nM]
CCOc1cc2[nH]ncc2cc1Nc1ncnc2sc3c(c12)CCC(C(=O)N(CC)CCC#N)C3 (racemic) [Example 242, (RS)—N-(2-Cyanoethyl)-4-[(6-ethoxy-1H-indazol-5-yl)amino]-N-ethyl-5,6,7,8-tetrahydro[1]benzothieno[2,3-d]pyrimidine-7-carboxamide] | 0.3
CCOc1cc2[nH]ncc2cc1Nc1ncnc2sc3c(c12)CCC(C(=O)N(C)CCOC)C3 (racemic) [Example 245, (RS)-4-[(6-Ethoxy-1H-indazol-5-yl)amino]-N-(2-methoxyethyl)-N-methyl-5,6,7,8-tetrahydro[1]benzothieno[2,3-d]pyrimidine-7-carboxamide] | 0.7
CCOc1cc2[nH]ncc2cc1Nc1ncnc2sc3c(c12)CCC(C(=O)N1CCN(CC2CC2)CC1)C3 (racemic) [Example 247, (RS)-[4-(Cyclopropylmethyl)piperazin-1-yl]{4-[(6-ethoxy-1H-indazol-5-yl)amino]-5,6,7,8-tetrahydro[1]benzothieno[2,3-d]pyrimidin-7-yl}methanone] | 0.3
CN(C)C(=O)C1CCc2c(sc3ncnc(Nc4cc5cn[nH]c5cc4OC(F)(F)F)c23)C1 (racemic) [Example 249, (RS)—N,N-Dimethyl-4-{[6-(trifluoromethoxy)-1H-indazol-5-yl]amino}-5,6,7,8-tetrahydro[1]benzothieno[2,3-d]pyrimidine-7-carboxamide] | 15
CN(C)C(=O)C1CCc2c(sc3ncnc(Nc4cc5cn[nH]c5cc4N(C)C)c23)C1 (racemic) [Example 251, (RS)-4-{[6-(Dimethylamino)-1H-indazol-5-yl]amino}-N,N-dimethyl-5,6,7,8-tetrahydro[1]benzothieno[2,3-d]pyrimidine-7-carboxamide] | 0.2
CCOc1cc2[nH]ncc2cc1Nc1ncnc2sc3c(c12)CCC(C(=O)N(CCOC)CCOC)C3 (racemic) [Example 252, (RS)-4-[(6-Ethoxy-1H-indazol-5-yl)amino]-N,N-bis(2-methoxyethyl)-5,6,7,8-tetrahydro[1]benzothieno[2,3-d]pyrimidine-7-carboxamide] | 2.2
CCCN(C)C(=O)C1CCc2c(sc3ncnc(Nc4cc5cn[nH]c5cc4OCC)c23)C1 (racemic) [Example 253, (RS)-4-[(6-Ethoxy-1H-indazol-5-yl)amino]-N-methyl-N-propyl-5,6,7,8-tetrahydro[1]benzothieno[2,3-d]pyrimidine-7-carboxamide] | 1.2
CCOc1cc2[nH]ncc2cc1Nc1ncnc2sc3c(c12)CCC(C(=O)N(C)C)C3 (racemic) [Example 254, (RS)-4-[(6-Ethoxy-1H-indazol-5-yl)amino]-N,N-dimethyl-5,6,7,8-tetrahydro[1]benzothieno[2,3-d]pyrimidine-7-carboxamide] | 1.6
CCOc1cc2[nH]ncc2cc1Nc1ncnc2sc3c(c12)CCC(C(=O)N(C)CC(O)CO)C3 (racemic) [Example 257, (7RS)—N-[(2RS)-2,3-Dihydroxypropyl]-4-[(6-ethoxy-1H-indazol-5-yl)amino]-N-methyl-5,6,7,8-tetrahydro[1]benzothieno[2,3-d]pyrimidine-7-carboxamide] | 0.6
CCOc1cc2[nH]ncc2cc1Nc1ncnc2sc3c(c12)CCC(C(=O)N1CCC(N(C)C)C1)C3 (racemic) [Example 258, [(3RS)-3-(Dimethylamino)pyrrolidin-1-yl]{(7RS)-4-[(6-ethoxy-1H-indazol-5-yl)amino]-5,6,7,8-tetrahydro[1]benzothieno[2,3-d]pyrimidin-7-yl}methanone] | 0.4
CN(C)C(=O)C1CCc2c(sc3ncnc(Nc4cc5cn[nH]c5cc4OCCCl)c23)C1 (racemic) [Example 266, (RS)-4-{[6-(2-Chloroethoxy)-1H-indazol-5-yl]amino}-N,N-dimethyl-5,6,7,8-tetrahydro[1]benzothieno[2,3-d]pyrimidine-7-carboxamide] | 1.2
